Results as given in patent US20220370537A1, “PHARMACEUTICAL COMPOSITION AND FUNCTIONAL HEALTH FOOD FOR TREATING BENIGN PROSTATIC HYPERPLASIA INCLUDING LAURUS NOBILIS AS ACTIVE INGREDIENT, AND METHOD OF TREATING BENIGN PROSTATIC HYPERPLASIA USING THE SAME” (KOSABIO INC., priority 2020, published 2022).

Key:
Type in all cases: in vivo, Wistar rats
[1] = system: benign prostatic hyperplasia (testosterone-induced prostate hypertrophy); test: Therapeutic efficacy on benign prostatic hyperplasia: change in prostate weight and volume; settings: FINA 0.8 mg/kg orally, BPH-induced rats, therapeutic test
Procedure: (§1) Male Wistar rats at 8 weeks of age (Samtako, Korea) were acclimated. When the rats weighed about 380 g on average (19 weeks old), they were divided into groups of 7.
(§2) After removing the testis therefrom, the rats in one of the groups were allowed to revive for about 24 hours. Propionate testosterone was subcutaneously injected at a dose of 5 mg/kg into the castrated group and the normal group to induce prostate hypertrophy for 8 weeks (BPH-induced groups). After induction of prostate hypertrophy for 8 weeks, the rats were treated as follows. Along with testosterone injection, the bay leaf extracts were orally administered at predetermined doses (mg/kg) once a day (seven times a week) for 8 weeks. Separately, Finasteride, which is a commercially available therapeutic agent for benign prostatic hyperplasia, was orally administered to a positive control.
After completion of the experiment, the rats of all the experimental groups were euthanized. The prostate tissues and main organs were excised therefrom and measured for weight and volume using an electronic scale for animal weights and a caliper (mm^3) (Table 1).

[2] = system: benign prostatic hyperplasia (testosterone-induced prostate hypertrophy); test: Prophylactic effect on benign prostatic hyperplasia: change in prostate weight and volume; settings: FINA 0.8 mg/kg orally, BPH-induced rats, prophylactic test
Procedure: Male Wistar rats at 8 weeks of age (Samtako, Korea) were acclimated. When the rats weighed about 320 g on average (12 weeks old), they were divided into groups of 5.
as §2, with “7” for “5”
After completion of the experiment, the rats of all the experimental groups were euthanized. The prostate tissues and main organs were excised therefrom and measured for weight and volume using an electronic scale for animal weights and a caliper (mm^3) (Table 3).

[3] = Prophylactic test: hepatotoxicity and renal function, serum biochemical index; settings: FINA 0.8 mg/kg orally
Procedure: Male Wistar rats at 8 weeks of age (Samtako, Korea) were acclimated. When the rats weighed about 320 g on average (12 weeks old), they were divided into groups of 5. After removing the testis therefrom, the rats in one of the groups were allowed to revive for about 24 hours. Propionate testosterone was subcutaneously injected at a dose of 7 mg/kg into the castrated group and the normal group to induce prostate hypertrophy for 8 weeks (BPH-induced groups). After induction of prostate hypertrophy for 8 weeks, the rats were treated as follows. Along with testosterone injection, the bay leaf extracts were orally administered at predetermined doses (mg/kg) once a day (seven times a week) for 8 weeks. Separately, Finasteride, which is a commercially available therapeutic agent for benign prostatic hyperplasia, was orally administered to a positive control. For use in biochemical index analysis, blood samples were taken from the rats of all the groups through abdominal veins. The blood sample was coagulated for about 30 min and centrifuged at 10,000 rpm for 5 min to separate sera. The sera thus obtained were measured for liver function index (AST and ALT), lipoprotein levels (total cholesterol (T-CHO), HDL cholesterol (HDL-C), LDL cholesterol (LDL-C)), and kidney function index (creatine), using a biochemical analyzer (AU480, Beckman Coulter, USA) (Table 4).

[4] = Therapeutic test: hepatotoxicity and renal function, serum biochemical index; settings: FINA 0.8 mg/kg orally
Procedure: as §1, §2
For use in biochemical index analysis, blood samples were taken from the rats of all the groups through abdominal veins. The blood sample was coagulated for about 30 min and centrifuged at 10,000 rpm for 5 min to separate sera. The sera thus obtained were measured for liver function index (AST and ALT), lipoprotein levels (total cholesterol (T-CHO), HDL cholesterol (HDL-C), LDL cholesterol (LDL-C)), and kidney function index (creatine), using a biochemical analyzer (AU480, Beckman Coulter, USA) (Table 2).

CC(C)(C)NC(=O)[C@H]1CC[C@H]2[C@@H]3CC[C@H]4NC(=O)C=C[C@]4(C)[C@H]3CC[C@]12C [Finasteride]
Kidney weight [1]: 0.65 g
Liver weight [1]: 10.36 g
Prostate volume [1]: 3459.59 mm^3
Prostate weight (b) [1]: 1.16 g
Ratio (b/a*100) [1]: 0.28%
Weight (a) [1]: 426.6 g
Kidney weight [2]: 0.58 g
Liver weight [2]: 8.09 g
Prostate volume [2]: 4626.31 mm^3
Prostate weight (b) [2]: 1.43 g
Ratio (b/a*100) [2]: 0.43%
Weight (a) [2]: 328.3 g
ALT [3]: 51.6 U/L
AST [3]: 140.4 U/L
CRE [3]: 0.2 mg/dL
HDL [3]: 43.3 mg/dL
LDL [3]: 17.0 mg/dL
T-CHO [3]: 60.6 mg/dL
ALT [4]: 50.3 U/L
AST [4]: 83.1 U/L
CRE [4]: 0.3 mg/dL
HDL [4]: 43.6 mg/dL
LDL [4]: 14.1 mg/dL
T-CHO [4]: 70.7 mg/dL
